Where two headings read alike, the source gives them in different places.
Key:
[1] = Cell viability of infected PBMCs by trypan blue dye exclusion; assay type: cell-based, human; details: human, infected PBMCs, read-out: HTLV-I TC50; for CC50 at 2 weeks: 2 wks post infection; for CC50 at 3 weeks: 3 wks post infection; for CC50 at 4 weeks: 4 wks post infection
Experimental: (§1) Co-Culture for HTLV-I Replication: Cell cultures were incubated at 37° C./5% CO2 for four weeks. Cell viability and density was monitored by trypan blue dye exclusion test. Cell density was readjusted to 8×10^5 cells per mL on days 3, 7, 10, 14, 21 and 28. Compound was added with the half-volume fresh medium exchange on days 3, 7, and 10. Supernatant was collected on days 14, 21 and 28 for measurement of HTLV-I virus replication by p19 Gag ELISA. Cell samples were also collected on days 14 and 28 for genomic DNA extraction and PCR analysis of HTLV-I proviral DNA. Untreated PBMCs co-cultured with MT-2 cells, PBMCs alone, and mitomycin C-treated MT-2 cells alone were cultured in parallel as controls.
(§2) Anti-HTLV-I Evaluations: HDP-TFV K^+ salt and tenofovir were evaluated for HTLV-I inhibition in human PBMCs co-cultured with mitomycin C treated MT-2 cells at four concentrations of each compound. AZT was evaluated in parallel as a control compound. […] Cell viability was monitored by trypan blue dye exclusion. AZT and tenofovir were not toxic to the infected PBMCs at concentrations up to 25 μM at 2, 3, or 4 weeks post infection.
as §2, with “Evaluations: HDP-CDV” for “Evaluations: HDP-TFV K^+ salt”, “and cidofovir” for “and tenofovir”, “AZT was” for “AZT and tenofovir were”

[2] = system: infected PBMCs; experiment: as above; assay type: cell-based, human; details: for toxicity as fresh compound was added to the cultures up to day 10: infected PBMC cultures; for CC50: infected PBMCs, read-out: HTLV-I TC50
Experimental: as §1, §2
as §2, with “Evaluations: HDP-CDV” for “Evaluations: HDP-TFV K^+ salt”, “and cidofovir” for “and tenofovir”, “AZT was” for “AZT and tenofovir were”

[3] = system: HTLV-I proviral DNA; experiment: PCR of proviral HTLV-I DNA in co-cultured PBMCs; assay type: cell-based; details: for relative intensity of amplified HTLV-I versus infected controls (PBMC+MT-2 cells): two and four weeks, all concentrations; for concentration giving less integration of proviral DNA by PCR: weeks 2 and 4
Experimental: as §1
(§3) PCR of Proviral HTLV-I DNA: The presence of HTLV-I proviral DNA at 2 and 4 weeks in treated and untreated PBMC cells was examined using a PCR assay. Total DNA was extracted from frozen cell pellets using Qiagen DNEasy Blood and Tissue kits according to the manufacturer's recommended method for extraction from cultured cells. DNA was eluted in 200 μl of Buffer AE and the concentration was determined by absorbance at 260 nm in a Spectramax 386 Plus plate reader. Fifty nanograms of extracted DNA was subjected to two separate PCR amplifications using primer sets for HTLV-I and human GAPDH. Amplifications were performed using PCR primer sets designed at ImQuest BioSciences and synthesized by IDT (Coraville, Id.). Amplification of HTLV-I proviral DNA was performed using 50 ng of extracted DNA in a 25 μl reaction volume with TaqPro complete (Denville Scientific, Metuchen, N.J.) and DNA oligonucleotide primers (0.2 μM each) HTLV-3281-F (5′-AACTTCAAGCCCTACTTGGCGAGA-3′[SED ID NO.: 1]) and HTLV-3666-R (5′-TGTATGGTTTGGCAGAGTAGCCCA-3′ [SED ID NO.: 2]). Amplification of human GAPDH DNA sequences was performed using 50 ng of extracted DNA in a 25 μl reaction volume with TaqPro complete and DNA oligonucleotide primers (0.2 μM each) hGAPDH-gF1 (5′-GAAGGAAATGAATGGGCAGCCGTT-3′ [SED ID NO.: 3]) and GAPDH-gR1 (5′-ATTTGCCAAGTTGCCTGTCCTTCC-3′ [SED ID NO.: 4]). Amplification conditions for both HTLV-I and GAPDH consisted of an initial denaturation step of 95° C. for 5 min followed by 40 cycles of 95° C. for 30 sec, 62° C. for 30 sec, 72° C. for 45 sec and a final extension of 72° C. for 5 min. The amplified DNA products were evaluated by agarose gel electrophoresis and ethidium bromide staining.
as §3, with “AGA-3′ [SED” for “AGA-3′[SED”, “5])” for “1])”, “6]).” for “2]).”, “7])” for “3])”, “8]). […]” for “4]). Amplification conditions for both HTLV-I and GAPDH consisted of an initial denaturation step of 95° C. for 5 min followed by 40 cycles of 95° C. for 30 sec, 62° C. for 30 sec, 72° C. for 45 sec and a final extension of 72° C. for 5 min. The amplified DNA products were evaluated by agarose gel electrophoresis and ethidium bromide staining.”

[4] = concentrations up to 25 μM at 2, 3, or 4 weeks post infection

Row | Structure (SMILES) | CC50 at 2 weeks [1] [µM] | CC50 at 3 weeks [1] [µM] | CC50 at 4 weeks [1] [µM] | toxicity to the infected PBMCs ([2]; 100 μM, following 4 weeks in culture) | concentration inhibiting accumulation of HTLV proviral DNA ([3]; two weeks of treatment) [µM] | toxicity as fresh compound was added to the cultures up to day 10 [2] | concentration inhibiting accumulation of HTLV proviral DNA ([3]; four weeks of treatment) | CC50 ([2]; 2 wks post infection) [µM] | CC50 ([2]; 3 wks post infection) [µM] | CC50 ([2]; 4 wks post infection) [µM] | toxicity to the infected PBMCs [2, 4] | relative intensity of amplified HTLV-I versus infected controls (PBMC+MT-2 cells) [3] | concentration giving less integration of proviral DNA by PCR [3] | inhibition of HTLV proviral DNA accumulation ([3]; four weeks of treatment, lower concentrations)
1 | Nc1ccn(C[C@@H](CO)OCP(=O)(O)O)c(=O)n1 [Cidofovir, (S)-9-(3-hydroxy-2-phosphonylmethoxypropyl)cytosine] | > 100 | > 100 | 80 | slightly toxic | 100 | – | – | – | – | – | – | – | – | –
2 | CCCCCCCCCCCCCCCCOCCCOP(=O)(O)CO[C@H](CO)Cn1ccc(N)nc1=O [HDP-CDV, hexadecyloxypropyl cidofovir] | 7.5 | 3.2 | 1.4 | – | ≥ 0.2 | increasingly toxic | all concentrations | – | – | – | – | – | – | –
3 | C[C@H](Cn1cnc2c(N)ncnc21)OCP(=O)(O)O [Tenofovir, (R)-9-(2-phosphonylmethoxypropyl)adenine] | – | – | – | – | – | – | – | > 25 | > 25 | > 25 | not toxic | either equal or less than | 25 µM | –
4 | CCCCCCCCCCCCCCCCOCCCOP(=O)(O)CO[C@H](C)Cn1cnc2c(N)ncnc21 [HDP-TFV, 3-(hexadecyloxy)propyl hydrogen ((R)-1-(6-amino-9H-purin 9-yl)propan-2-yloxy)methylphosphonate] | > 10 | 6.3 | 1 | – | – | increasingly toxic | – | – | – | – | – | – | – | apparent
5 | Cc1cn([C@H]2C[C@H](N=[N+]=[N-])[C@@H](CO)O2)c(=O)[nH]c1=O [AZT, 3′-azido-2′,3′-dideoxythymidine] | > 25 | > 25 | > 25 | – | – | – | – | – | – | – | not toxic | either equal or less than | above 0.1 μM | –
